The values below come from paper PMC10987541, “Characterization of a putative orexin receptor in Ciona intestinalis sheds light on the evolution of the orexin/hypocretin system in chordates” (Scientific Reports, 2024).

Experiment [1] deals with T1, CiOX (Ciona intestinalis, UniProt F6YII5).
T1 sequence (F6YII5 1-372): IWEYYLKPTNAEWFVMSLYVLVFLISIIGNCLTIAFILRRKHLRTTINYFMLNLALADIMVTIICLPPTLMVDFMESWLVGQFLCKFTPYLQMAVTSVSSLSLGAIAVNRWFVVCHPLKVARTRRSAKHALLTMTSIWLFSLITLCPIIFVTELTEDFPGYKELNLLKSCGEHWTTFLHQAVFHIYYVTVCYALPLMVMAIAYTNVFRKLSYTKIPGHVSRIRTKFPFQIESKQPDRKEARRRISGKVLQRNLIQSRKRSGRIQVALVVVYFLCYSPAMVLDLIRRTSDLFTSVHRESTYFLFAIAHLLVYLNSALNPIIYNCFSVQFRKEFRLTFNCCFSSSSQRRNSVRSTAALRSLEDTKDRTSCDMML
It is filed as cell-based. The following applies: CiOX-eGFP-expressing Flp-In T-REx 293 cells.
Method: (§3) The Flp-In T-REx 293 human cell line (Thermofisher Scientific, Waltham, MA, USA), based on HEK293 cells, was cultured at 37 °C in 5% CO2 in an air‐ventilated humidified incubator according to manufacturer’s protocol, in high glucose Dulbecco’s Modified Eagle Medium (Biowest, Nuaillé, France) supplemented with 10% FBS, 1% Glutamax (Gibco), 10 mM HEPES (VWR LifeScience, Radnor, PA, USA), 100 U/mL penicillin G (Sigma Chemical Co., St. Louis, MO, USA), 80 U/mL streptomycin (Sigma), blasticidin (15 µg/mL) (InvivoGen, San Diego, CA, USA). The host cell line was maintained with zeocin (100 µg/mL) (InvitroGen, Carlsbad, CA, USA) and the transfected cell lines with hygromycin B (100 µg/mL) (InvitroGen). The experimental medium, the HEPES-buffered medium, (HBM: 137 mM NaCl, 5 mM KCl, 1.2 mM MgCl2, 0.44 mM KH2PO4, 4.2 mM NaHCO3, 1 mM CaCl2, 10 mM glucose, 20 mM HEPES, adjusted to pH 7.4 with NaOH), was used in all laboratory experiments. For the calcium elevation assay, HBM was supplemented with 1 mM probenecid [4-(dipropylsulfamoyl)benzoic acid] (Sigma) and 0.2% lipid-free bovine serum album.
(§4) Calcium measurements were performed in triplicate or quadruplicate. […] Non-linear curve-fitting were conducted with Prism 5 (GraphPad Software Inc., La Jolla, CA, USA) using the following equation: Y=basal+responsemax-basal/1+10^logEC50-X

Experiment [2] concerns wild-type Flp-In T-REx 293 cells. Kind of experiment: Calcium elevation assay in wild-type Flp-In T-REx 293 cells. It is filed as cell-based, human. The following applies: for Ca2+ elevation in wild-type cells: wild-type Flp-In T-REx 293 cells, concentration-response, N = 3.
Method: as §3, §4
The target in experiment [3] is Ciona intestinalis putative orexin receptor fused to eGFP (Ciona intestinalis).
In experiment [4] the test system is CiOX. The experiment in a line: Inhibition of human orexin peptide-mediated Ca2+ responses in CiOX-expressing cells. The note with it: agonist orexin-A and -B 1 µM; inhibitor 1 µM added 30 min before; mean ± S.E.M., N = 3-4. It is filed as cell-based, Ciona intestinalis. The method, then:
Figure 7 The sensitivity of the human endogenous orexin peptide (1 µM) -mediated Ca^2+ responses to inhibitors (1 µM) in CiOX-expressing cells. The responses were normalized to the basal + inhibitor (0%) and the control agonist peptide response (in the absence of inhibitor; 100%) separately for each independent experiment before averaging. Data presented as mean ± S.E.M. N = 3–4. The significances are given in relation to the agonist control.
Intracellular calcium elevation is the apparent response upon orexin receptor activation in many cell types. The calcium elevation assay was conducted as previously described. Cells, 1 × 10^5 per well, were plated on polyethyleneimine (25 μg/mL, 1 h, 37 °C)-coated black, clear-bottom, half-area 96-well plates (Greiner). After 24 h, 100 ng/mL doxycycline was added onto the cells and incubated for another 24 h before loading the cells with FLIPR Calcium 5 Assay Kit (Molecular Devices, Sunnyvale, CA, USA) dissolved in and diluted with HBM and supplemented as described above. Cells were incubated for 1 h with the loading dye, before running the assay in FlexStation 3 fluorescence plate reader (Molecular Devices). Inhibitors were added manually at the midpoint of the probe incubation (30 min). Intracellular Ca^2+ levels were measured as fluorescent changes for 150 s (of which 30 s baseline prior to stimulation) with excitation at 485 nm, emission at 525 nm (recording every 1.3 s) at 37 °C.
The data were normalized in each experiment to the control response and then averaged between experiments by calculation of mean ± S.E.M. The N denotes the number of independent experiments and was always at least 3. Paired two-tailed t-test was used for comparison. Significances were as follows: * P < 0.05, ** P < 0.01, *** P < 0.001.

Experiment [5] concerns allatotropin receptor of Tribolium castaneum. The note with it: cited from earlier work. The source says:
The data presented in this study strongly support the notion that this orphan C. intestinalis receptor, here called CiOX, is an orexin-like receptor. Despite the sequence divergence, the (proposed) binding cavity of hOX2 and CiOX are highly similar.

In the next experiment the test system is hOX1. Kind of experiment: Binding of TAMRA-orexin-A (fluorescence microscopy) in hOX1-eGFP-expressing cells. Also noted: species or system human. The following applies: 30 nM. The method, then: (§1) We have previously observed that the N-terminus of orexin-A can tolerate additions without apparent loss of activity on orexin receptors (Kukkonen, unpublished) and it has been reported that fluorescently labelled orexin-A can be used as probe for hOX1/2[56].
(§2) The cells were seeded on polyethyleneimine-coated 25 mm circular glass coverslips (Menzel-Gläser, Braunschweig, Germany). Twenty-four hours after seeding, cells were treated with doxycycline (100 ng/mL) and incubated for another 24 h. Then, the coverslip was washed once with HBM, before mounting in the microfluorometric experiment chamber. The imaging system, composed of the Sutter Lambda DG-4 xenon light source/filter shifter (Sutter Instrument Company, Novato, CA, USA), Nikon TE2000 epifluorescence microscope (Nikon, Tokyo, Japan), Nikon Apo TIRF 60×/1.49 oil immersion objective and Andor iXon 885 electron-multiplying charge-coupled device camera (Oxford Instruments, Abingdon, Oxfordshire, UK), was under the control of the Nikon NIS Elements AR software. Images were alternately acquired at 480/30 nm excitation/510 nm dichroic mirror/535/40 nm emission for eGFP fluorescence and at 540/25 nm excitation/565 nm dichroic mirror/605/55 nm emission for TAMRA fluorescence. […]

Experiment [6] addresses T1, CiOX. Kind of experiment: Binding of TAMRA-orexin-A (fluorescence microscopy) in CiOX-eGFP-expressing cells. The following applies: 30 nM. As to the method:
as §1
The cells were seeded on polyethyleneimine-coated 25 mm circular glass coverslips (Menzel-Gläser, Braunschweig, Germany). Twenty-four hours after seeding, cells were treated with doxycycline (100 ng/mL) and incubated for another 24 h. Then, the coverslip was washed once with HBM, before mounting in the microfluorometric experiment chamber. The imaging system, composed of the Sutter Lambda DG-4 xenon light source/filter shifter (Sutter Instrument Company, Novato, CA, USA), Nikon TE2000 epifluorescence microscope (Nikon, Tokyo, Japan), Nikon Apo TIRF 60×/1.49 oil immersion objective and Andor iXon 885 electron-multiplying charge-coupled device camera (Oxford Instruments, Abingdon, Oxfordshire, UK), was under the control of the Nikon NIS Elements AR software. Images were alternately acquired at 480/30 nm excitation/510 nm dichroic mirror/535/40 nm emission for eGFP fluorescence and at 540/25 nm excitation/565 nm dichroic mirror/605/55 nm emission for TAMRA fluorescence. A pair of images was acquired once per minute or once per every five minutes depending on the incubation time; i.e., for a longer incubation 5 min was used to avoid potential bleaching. All the additions were made by direct pipetting into the chamber. Experiments were carried out at room temperature. 30 nM TAMRA-orexin-A was used.

For experiment [7], the system named is wild-type Flp-In T-REx 293 cells. Kind of experiment: Binding of TAMRA-orexin-A (fluorescence microscopy) in wild-type Flp-In T-REx 293 cells. The following applies: 30 nM; 10-minute incubation. Also noted: species or system human. As to the method: as §1, §2
Experiment [8] has as its system CiOX. It is filed as cell-based. The note with it: 100 µM.
Method: as §3, §4
Where [9] appears, read: room temperature, red fluorescence.

No end group written: not given here.

On to “orexin-A15–33: The 19-amino acid-long C-terminal fragment of orexin-A (RLYELLHGAGNHAAGILTL; ends and bridges not checked)”, for which the “EC50 of Ca2+ elevation” value with CiOX [1] (doxycycline 100 ng/mL 24 h, 37 °C, mean ± S.E.M., N = 3) was “no saturation was reached”. Besides, the “Ca2+ elevation in wild-type cells” value in [2] is “weakly elevated Ca^2+”.
`COc1ccc(-c2cccc(C(=O)N(C)C)c2)cc1S(=O)(=O)Nc1cccc(NCCNC(=O)c2cccc(C)c2)c1` [Nag 26, N-[2-[3-[[5-[3-(dimethylcarbamoyl)phenyl]-2-methoxyphenyl]sulfonylamino]anilino]ethyl]-3-methylbenzamide]: at CiOX [1], the “Ca2+ elevation in CiOX receptor-expressing cells” value is recorded as “induced no Ca^2+ elevation”. Further, the “Ca2+ elevation in wild-type cells” value in experiment [2] was “induced no Ca^2+ elevation”.
On to human orexin-A (peptide), for which, in experiment [3], the EC50 of the Ca2+ elevation in CiOX-eGFP-expressing Flp-In T-REx 293 cells (CiOX-specific response, wild-type response subtracted) is 225 nM.
As to `CNC(=O)[C@@H](c1ccccc1)N1CCc2cc(OC)c(OC)cc2[C@@H]1CCc1ccc(C(F)(F)F)cc1` [almorexant, (2R)-2-[(1S)-6,7-dimethoxy-1-[2-[4-(trifluoromethyl)phenyl]ethyl]-3,4-dihydro-1H-isoquinolin-2-yl]-N-methyl-2-phenylacetamide], in the experiment with CiOX [4], the “Inhibition of Ca2+ responses to CiOX stimulation with orexin-A and -B” value is reported as “nearly fully blocked the response”. Besides, the “Inhibition of the allatotropin receptor of Tribolium castaneum” value in experiment [5] is on record as “not inhibited”.
On to `Cn1c(SCC(=O)N2CCC[C@H]2C(=O)Nc2ccccc2-c2ccccc2)nc2ccccc21` [TCS 1102, (2S)-1-[2-(1-methylbenzimidazol-2-yl)sulfanylacetyl]-N-(2-phenylphenyl)pyrrolidine-2-carboxamide], for which the “Inhibition of Ca2+ responses to CiOX stimulation with orexin-A and -B” value in the experiment with CiOX [4] is on record as “nearly fully blocked the response”.
Same read-out and setting: the entry for `Cc1nc2ccc(NC(=O)Nc3ccnc4cccnc34)cc2o1` [SB-334867] is “much weaker effect”.
Still for that read-out and setting: under “[(1R)-1-[(3S,6S,9S,12S,18R,21S,22R)-21-acetamido-18-benzyl-3-[(1R)-1-methoxyethyl]-4,9,10,12,16-pentamethyl-15-methylidene-2,5,8,11,14,17,20-heptaoxo-22-propan-2-yl-1,19-dioxa-4,7,10,13,16-pentazacyclodocos-6-yl]-2-methylpropyl] (2S,3R)-3-hydroxy-4-methyl-2-(propanoylamino)pentanoate [UBO-QIC]” stands “nearly fully inhibited”.
For the molecule “TAMRA-orexin-A: 5-/6-carboxytetramethylrhodamine (TAMRA)-labelled human orexin-A, custom synthesis (QPLPDCCRQKTCSCRLYELLHGAGNHAAGILTL; ends and bridges not checked; also: TAMRA label, place not given here; UniProt O43612 34-66, looked up)”, in the experiment on hOX1, the “Internalization (intracellular red fluorescence) in hOX1 receptor-expressing cells” value is reported as “intracellular red fluorescence suggesting internalization”. For the same molecule, the “Binding to the plasma membranes of hOX1-eGFP-expressing cells” value in the experiment with hOX1 (setting [9]) was “bound to the plasma membranes of OX1 cells quickly after the addition”. Besides, the “Internalization (intracellular red fluorescence) in CiOX receptor-expressing cells” value with CiOX [6] is listed as “did not observe this”. In addition, the “Time for which the bound fluorescence intensity remained stable in CiOX-eGFP-expressing cells” value in the experiment with CiOX [6] (room temperature) is listed as “at least 30 min”. The “Binding to the plasma membranes of CiOX-eGFP-expressing cells” value with CiOX [6] (setting [9]) was “bound to the plasma membranes of the CiOX receptor-expressing cells”. In addition, in [7], the “Binding to wild-type Flp-In T-REx 293 cells” value is on record as “did not bind”.
On to “M. sexta allatotropin: Manduca sexta allatotropin from Bachem (GFKNVEMMTARGF)”, for which the “Ca2+ elevation in CiOX receptor-expressing cells” value with CiOX [1] is “induced no Ca^2+ elevation”. The “Ca2+ elevation in wild-type cells” value in experiment [2] is on record as “induced no Ca^2+ elevation”.
`Nc1ncnc2c1ncn2[C@@H]1O[C@H](COP(=O)(O)OP(=O)(O)OP(=O)(O)O)[C@@H](O)[C@H]1O` [ATP]: the “Ca2+ response to positive control in CiOX-expressing cells” value with CiOX [8] is on record as “robust Ca^2+ response”. Also, the “Ca2+ response to positive control in wild-type cells” value in experiment [2] (100 µM) is “robust Ca^2+ response”.
